Reference: patent US11446298B2, “Pyrimidine derivatives” (Idorsia Pharmaceuticals Ltd, priority 2017, dated 2022)
pIC50: −log10 of the molar value.

Key:
Format in all cases: cell-based
[1] = molecular target: T1, PTGER4 (EP4) (Homo sapiens, UniProt P35408); test: hEP4 b-Arrestin Assay (PathHunter HEK 293 PTGER4 b-arrestin cells, PGE2 20 nM); details: antagonistic activity, beta-arrestin assay, HEK 293 PTGER4 cells, PGE2 20 nM (EC80); read-out: hEP4 b-arr IC50
T1 construct: host or cells: HEK 293 (PathHunter, stably transfected)
T1 sequence (P35408 whole entry): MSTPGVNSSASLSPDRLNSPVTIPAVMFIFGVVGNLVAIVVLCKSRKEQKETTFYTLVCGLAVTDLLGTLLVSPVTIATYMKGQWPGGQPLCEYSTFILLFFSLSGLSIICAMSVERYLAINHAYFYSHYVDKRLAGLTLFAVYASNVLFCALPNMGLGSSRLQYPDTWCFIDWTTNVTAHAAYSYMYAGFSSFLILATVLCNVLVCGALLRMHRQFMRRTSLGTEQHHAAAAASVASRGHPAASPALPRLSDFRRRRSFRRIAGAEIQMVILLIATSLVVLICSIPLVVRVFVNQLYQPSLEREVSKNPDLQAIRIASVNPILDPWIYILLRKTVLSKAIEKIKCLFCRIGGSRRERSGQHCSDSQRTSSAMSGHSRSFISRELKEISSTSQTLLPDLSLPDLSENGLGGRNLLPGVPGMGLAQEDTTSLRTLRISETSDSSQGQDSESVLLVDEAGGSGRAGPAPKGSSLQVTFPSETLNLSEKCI
In short: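 PathHunter HEK 293 EP4 b-arrestin enzyme-complementation cells preincubated 15 min at 37° C with compound (10 μM-2 nM or 1 μM-0.2 nM), then stimulated 120 min with 20 nM PGE2 (EC80). Chemiluminescence read; IC50 from duplicate % activity vs DMSO, one-site fit, averaged over repeats.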

[2] = molecular target: T2, EP2 (Homo sapiens, UniProt P43116); test: hEP2 cAMP Assay (SF295 glioblastoma cells, HTRF cAMP, PGE2 75 nM); details: antagonistic activity, PGE2 75 nM (EC80)
T2 construct: SF295 glioblastoma cells express high endogenous EP2 and no EP4; host or cells: SF295 glioblastoma cells
T2 sequence (P43116 whole entry): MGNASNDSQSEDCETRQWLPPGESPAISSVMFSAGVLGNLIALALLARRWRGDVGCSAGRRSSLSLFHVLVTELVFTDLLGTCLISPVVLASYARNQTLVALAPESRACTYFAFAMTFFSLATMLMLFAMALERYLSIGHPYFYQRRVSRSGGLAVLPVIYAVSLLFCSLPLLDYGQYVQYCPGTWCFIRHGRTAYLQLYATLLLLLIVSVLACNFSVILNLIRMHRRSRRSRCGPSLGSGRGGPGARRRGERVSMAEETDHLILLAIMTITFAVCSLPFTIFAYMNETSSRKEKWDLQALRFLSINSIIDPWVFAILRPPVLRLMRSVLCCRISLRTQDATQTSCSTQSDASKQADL
In short: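 IC50 values derive from duplicate-point curves of percent cAMP relative to DMSO, read by HTRF (665/620 nm) against a cAMP calibrator. Compounds (30 μM to 0.01 nM ranges) were given 45 min at room temperature before 30 min with 75 nM PGE2, in EP2-only SF295 cells with 2 mM IBMX.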

[3] = molecular target: T3, PTGER2 (EP2) (Homo sapiens, UniProt P43116); test: hEP2 b-Arrestin Assay (PathHunter HEK 293 PTGER2 b-arrestin cells, PGE2 5 μM); details: antagonistic activity, beta-arrestin assay, HEK 293 PTGER2 cells, PGE2 5 μM (EC80); read-out: hEP2 b-arr IC50
T3 construct: host or cells: HEK 293 (PathHunter, stably transfected)
T3 sequence (P43116 whole entry): as above
In short: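 PathHunter enzyme-fragment complementation in HEK 293 cells: compounds (10 μM-2 nM or 1 μM-0.2 nM) pre-incubated 15 min at 37 °C, then 5 μM PGE2 (EC80) for 120 min at 37 °C. Chemiluminescence read after 1 h detection; IC50 from duplicate dose-response fits, means of repeats.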

[4] = molecular target: T4, EP4 (Homo sapiens, UniProt P35408); test: hEP4 cAMP Assay (BT549 breast cancer cells, HTRF cAMP, PGE2 6 nM); details: antagonistic activity, PGE2 6 nM (EC80)
T4 construct: BT549 breast cancer cells, express high endogenous EP4 levels and very low EP2 levels; host or cells: BT549 breast cancer cells
T4 sequence (P35408 whole entry): as the sequence (P35408 whole entry) above
In short: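 Antagonism is measured as inhibition of PGE2 (6 nM final, EC80) cAMP accumulation in EP4-expressing BT549 breast cancer cells, after a 45 min room-temperature compound pre-incubation and 30 min agonist step, with 2 mM IBMX present. HTRF ratio gives cAMP relative to DMSO; IC50 fitted, means over repeat runs.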

SMILES | pIC50 [1] | pIC50 [2] | pIC50 [3] | pIC50 [4]
CCOc1cc(-c2cc(NCCc3c(OC)c(OC)cc4ccccc34)ncn2)sc1C(=O)O [Example 14, 5-{6-[2-(2,3-Dimethoxy-naphthalen-1-yl)-ethylamino]-pyrimidin-4-yl}-3-ethoxy-thiophene-2-carboxylic acid] | 7.77 | 7.11 | 7.55 | 7.62
CCOc1cc(-c2cc(NCCc3c(Cl)ccc4cccnc34)ncn2)sc1C(=O)O [Example 15, 5-{6-[2-(7-Chloro-quinolin-8-yl)-ethylamino]-pyrimidin-4-yl}-3-ethoxy-thiophene-2-carboxylic acid] | 6.72 | 7.60 | 7.57 | 6.77
CCOc1cc(-c2cc(NCCc3ccc(C)c4ccccc34)ncn2)ccc1C(=O)O [Example 16, 2-Ethoxy-4-{6-[2-(4-methyl-naphthalen-1-yl)-ethylamino]-pyrimidin-4-yl}-benzoic acid] | 6.54 | 6.75 | 6.84 | 6.57
CCOc1cc(-c2cc(NCCc3ccc(C)c4ccccc34)ncn2)sc1C(=O)O [Example 18, 3-Ethoxy-5-{6-[2-(4-methyl-naphthalen-1-yl)-ethylamino]-pyrimidin-4-yl}-thiophene-2-carboxylic acid] | 8.05 | 7.68 | 7.72 | 8.15
CCOc1cc(-c2cc(NCCc3ccc(F)c4ccccc34)ncn2)sc1C(=O)O [Example 21, 3-Ethoxy-5-{6-[2-(4-fluoro-naphthalen-1-yl)-ethylamino]-pyrimidin-4-yl}-thiophene-2-carboxylic acid] | 7.11 | 7.80 | 7.49 | 7.21
CCOc1cc(-c2cc(NCCc3cccc4cccnc34)ncn2)sc1C(=O)O [Example 23, 3-Ethoxy-5-[6-(2-quinolin-8-yl-ethylamino)-pyrimidin-4-yl}-thiophene-2-carboxylic acid] | 6.53 | 6.61 | 6.52 | 6.62
CCOc1cc(-c2cc(NCCc3cccc4ccn(C)c34)ncn2)sc1C(=O)O [Example 24, 3-Ethoxy-5-{6-[2-(1-methyl-1H-indol-7-yl)-ethylamino]-pyrimidin-4-yl}-thiophene-2-carboxylic acid] | 6.69 | 7.82 | 7.77 | 7.02
CCOc1cc(-c2cc(NCCc3cccc4c3ccn4C)ncn2)sc1C(=O)O [Example 25, 3-Ethoxy-5-{6-[2-(1-methyl-1H-indol-4-yl)-ethylamino]-pyrimidin-4-yl}-thiophene-2-carboxylic acid] | 6.84 | 7.82 | 7.82 | 7.32
CCOc1ccc2ccccc2c1CCNc1cc(-c2ccc(C(=O)O)c(OC3CCC3)c2)ncn1 [Example 26, 2-Cyclobutoxy-4-{6-[2-(2-ethoxy-naphthalen-1-yl)-ethylamino]-pyrimidin-4-yl}-benzoic acid] | 6.41 | 7.96 | 8.00 | 6.25
CCOc1cc(-c2cc(NCCc3c(OCC)ccc4ccccc34)ncn2)sc1C(=O)O [Example 27, 3-Ethoxy-5-{6-[2-(2-ethoxy-naphthalen-1-yl)-ethylamino]-pyrimidin-4-yl}-thiophene-2-carboxylic acid] | 7.28 | 8.70 | 8.52 | 7.48
CCOc1cc(-c2cc(NCCc3cccc4c(C)c(C)n(C)c34)ncn2)sc1C(=O)O [Example 29, 3-Ethoxy-5-{6-[2-(1,2,3-trimethyl-1H-indol-7-yl)-ethylamino]-pyrimidin-4-yl}-thiophene-2-carboxylic acid] | 6.79 | 6.87 | 6.62 | 6.83
CCOc1cc(-c2cc(NCCc3c(OC(C)C)ccc4ccccc34)ncn2)sc1C(=O)O [Example 30, 3-Ethoxy-5-{6-[2-(2-isopropoxy-naphthalen-1-yl)-ethylamino]-pyrimidin-4-yl}-thiophene-2-carboxylic acid] | 7.08 | 7.64 | 6.94 | 7.21
CCOc1cc(-c2cc(NCCc3cccc4nc(C)sc34)ncn2)sc1C(=O)O [Example 31, 3-Ethoxy-5-{6-[2-(2-methyl-benzothiazol-7-yl)-ethylamino]-pyrimidin-4-yl}-thiophene-2-carboxylic acid] | 5.85 | 6.72 | 6.70 | 6.25
CCOc1cc(-c2cc(NCCc3c(OC(F)F)ccc4ccccc34)ncn2)sc1C(=O)O [Example 32, 5-{6-[2-(2-Difluoromethoxy-naphthalen-1-yl)-ethylamino]-pyrimidin-4-yl}-3-ethoxy-thiophene-2-carboxylic acid] | 7.72 | 8.00 | 8.00 | 7.14
CCOc1cc(-c2cc(NCCc3c(OC)ccc4cccnc34)ncn2)sc1C(=O)O [Example 33, 3-Ethoxy-5-{6-[2-(7-methoxy-quinolin-8-yl)-ethylamino]-pyrimidin-4-yl}-thiophene-2-carboxylic acid] | 6.60 | 7.11 | 7.25 | 6.65
CCOc1cc(-c2cc(NCCc3c(OC)ccc4c3CCO4)ncn2)sc1C(=O)O [Example 34, 3-Ethoxy-5-{6-[2-(5-methoxy-2,3-dihydro-benzofuran-4-yl)-ethylamino]-pyrimidin-4-yl}-thiophene-2-carboxylic acid] | 6.94 | 7.19 | 7.41 | 6.82
CCOc1cc(-c2cc(NCCc3cccc4ccoc34)ncn2)sc1C(=O)O [Example 35, 5-[6-(2-Benzofuran-7-yl-ethylamino)-pyrimidin-4-yl]-3-ethoxy-thiophene-2-carboxylic acid] | 6.95 | 7.12 | 6.94 | 7.04
CCOc1cc(-c2cc(NCCc3cccc4[nH]ccc34)ncn2)sc1C(=O)O [Example 39, 3-Ethoxy-5-{6-[2-(1H-indol-4-yl)-ethylamino]-pyrimidin-4-yl}-thiophene-2-carboxylic acid] | 6.41 | 7.30 | 7.09 | 7.00
CCOc1cc(-c2cc(NCCc3cc(OC)cc4ccccc34)ncn2)sc1C(=O)O [Example 42, 3-Ethoxy-5-{6-[2-(3-methoxy-naphthalen-1-yl)-ethylamino]-pyrimidin-4-yl}-thiophene-2-carboxylic acid] | 7.82 | 7.51 | 7.49 | 7.46
CCOc1cc(-c2cc(NCCc3c(OC)ccc4c3OCO4)ncn2)sc1C(=O)O [Example 44, 3-Ethoxy-5-{6-[2-(5-methoxy-benzo[1,3]dioxol-4-yl)-ethylamino]-pyrimidin-4-yl}-thiophene-2-carboxylic acid] | 7.29 | 7.43 | 7.44 | 7.38
CCOc1cc(-c2cc(NCCc3c(OCC)ccc4c3OCO4)ncn2)sc1C(=O)O [Example 45, 3-Ethoxy-5-{6-[2-(5-ethoxy-benzo[1,3]dioxol-4-yl)-ethylamino]-pyrimidin-4-yl}-thiophene-2-carboxylic acid] | 7.28 | 8.00 | 8.00 | 7.36
CCOc1cc(-c2cc(NCCc3cccc4cc[nH]c34)ncn2)sc1C(=O)O [Example 46, 3-Ethoxy-5-{6-[2-(1H-indol-7-yl)-ethylamino]-pyrimidin-4-yl}-thiophene-2-carboxylic acid] | 6.51 | 7.07 | 6.96 | 6.61
CCOc1cc(-c2cc(NCCc3ccc(OC)c4ccccc34)ncn2)sc1C(=O)O [Example 59, 3-Ethoxy-5-{6-[2-(4-methoxy-naphthalen-1-yl)-ethylamino]-pyrimidin-4-yl}-thiophene-2-carboxylic acid] | 7.77 | 6.85 | 6.81 | 7.42
CCOc1cc(-c2cc(NCCc3ccc(Cl)c4ccccc34)ncn2)sc1C(=O)O [Example 62, 5-{6-[2-(4-Chloro-naphthalen-1-yl)-ethylamino]-pyrimidin-4-yl}-3-ethoxy-thiophene-2-carboxylic acid] | 7.72 | 7.62 | 7.49 | 7.54
CCOc1cc(-c2cc(NCCc3c(OC)ccc4ncccc34)ncn2)sc1C(=O)O [Example 65, 3-Ethoxy-5-{6-[2-(6-methoxy-quinolin-5-yl)-ethylamino]-pyrimidin-4-yl}-thiophene-2-carboxylic acid] | 7.11 | 7.82 | 7.74 | 7.12
